Read-outs that look alike come from different tables or passages of the source.
Tests used:
Format in all cases: in vivo
Pratylenchus coffeae = assay: Nematode control, nodules per plant: Pratylenchus coffeae; details: 1 μM foliar application every 5 days, evaluation 35 days after, control 42
Outline: (§1)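 Compounds in ethanol, diluted in water to 1 μM, sprayed on leaves only every 5 days. Ten plants per treatment; nodules per plant counted at 35 days.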

Botrytis cinerea [1] = assay: Control of Botrytis cinerea disease in Arabidopsis (Bc-At); details: 1 μM spraying every 24 hours for one week, water control 8.7
Outline: (§2)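 Each group of fifty plants is inoculated with the pathogen and afterwards sprayed with 1 μM compound once every 24 hours over one week. Water-sprayed plants serve as the control. Disease is scored as mortality (Nocardia), symptomatic leaf percentage (Alternaria) or lesion size by diameter (Botrytis).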

Radopholus similis = assay: Nematode control, nodules per plant: Radopholus similis; details: 1 μM foliar application every 5 days, evaluation 35 days after, control 45
Outline: as §1

Meloidogyne incognita = assay: Nematode control, nodules per plant: Meloidogyne incognita; details: 1 μM foliar application every 5 days, evaluation 35 days after, control 34
Outline: as §1

Rhizoctonia solani [2] = assay: Control of Rhizoctonia solani disease in tobacco (Rs-Nt); details: 1 μM spraying every 24 hours for one week, water control 87
Botrytis cinerea [3] = assay: Control of Botrytis cinerea disease in tobacco (Bc-Nt); details: 1 μM spraying every 24 hours for one week, water control 6.7
Outline: as §2

Alternaria solani = assay: Control of Alternaria solani disease in tomato (As-SI); details: 1 μM spraying every 24 hours for one week, water control 68
Outline: as §2

Botrytis cinerea [4] = assay: Control of Botrytis cinerea disease in tomato (Bc-SI); details: 1 μM spraying every 24 hours for one week, water control 7.4
Outline: as §2

Phytophthora parasitica = assay: Control of Phytophthora parasitica disease in tobacco (Pp-Nt); details: 1 μM spraying every 24 hours for one week, water control 91
[5] = system: Candidatus 'Liberibacter asiaticus'; details: spraying every 15 days, 12 months after treatment, Citrus sinensis with HLB
Nocardia sp = assay: Control of Nocardia sp disease in tobacco (N-Nt); details: 1 μM spraying every 24 hours for one week, water control 58
Outline: as §2

Rhizoctonia solani [6] = assay: Control of Rhizoctonia solani disease in tomato (Rs-SI); details: 1 μM spraying every 24 hours for one week, water control 96

SMILES	Pc: number of nodules per plant (Pratylenchus coffeae)	Bc-At: mean of the diameter of the lesion (Botrytis cinerea [1]) [mm]	Rs: number of nodules per plant (Radopholus similis)	Mi: number of nodules per plant (Meloidogyne incognita)	Rs-Nt: percentage of mortality (Rhizoctonia solani [2]) [%]	Bc-Nt: mean of the diameter of the lesion (Botrytis cinerea [3]) [mm]	As-SI: percentage of leaves with the disease symptoms (Alternaria solani) [%]	Bc-SI: mean of the diameter of the lesion (Botrytis cinerea [4]) [mm]	Pp-Nt: percentage of mortality (Phytophthora parasitica) [%]	Titers of the bacterium ([5]; 0.001 μM) [copies per reaction]	Titers of the bacterium ([5]; 0.01 μM) [copies per reaction]	Titers of the bacterium ([5]; 1 μM) [copies per reaction]	Titers of the bacterium ([5]; 5 μM) [copies per reaction]	Titers of the bacterium ([5]; 10 μM) [copies per reaction]	N-Nt: percentage of mortality (Nocardia sp) [%]	Rs-SI: percentage of mortality (Rhizoctonia solani [6]) [%]
O=C(c1ccc(OC2CCN(CC(O)CO)CC2)cc1)N1CCCC1 (centres unmarked) [IVI, 3-(4-{4-[(pyrrolidin-1-yl)carbonyl]phenoxy}piperidin-1-yl)propane-1,2-diol]	0	1.2	3	0	0	0.3	7	0.8	3	456	4	2	56	2547	0	1
CC(O)C(O)CN1CCC(Oc2ccc(C(=O)N3CCCC3)cc2)CC1 (centres unmarked) [IVJ, 1-(4-{4-[(pyrrolidin-1-yl)carbonyl]phenoxy}piperidin-1-yl)butane-2,3-diol]	18	1.1	16	2	2	2.0	1	1.6	1	435	7	3	45	9547	1	3
O=C(c1ccc(OC2CCN(CC(O)CO)CC2)cc1)N1CCC(n2cccc2)C1 (centres unmarked) [IVK, 3-[4-(4-{[3-(1H-pyrrol-1-yl)pyrrolidin-1-yl]carbonyl}phenoxy)piperidin-1-yl]propane-1,2-diol]	14	0.5	14	2	2	0.9	1	0.8	1	578	5	4	78	8542	1	3
CC(O)C(O)CN1CCC(Oc2ccc(C(=O)N3CCC(n4cccc4)C3)cc2)CC1 (centres unmarked) [IVL, 1-[4-(4-{[3-(1H-pyrrol-1-yl)pyrrolidin-1-yl]carbonyl}phenoxy)piperidin-1-yl]butane-2,3-diol]	12	1.5	2	3	3	1.5	2	2.5	2	635	1	7	65	9853	1	2
CNC(=O)c1ccc2c(c1)NC(CC(=O)NC(CO)CO)CO2 (centres unmarked) [VA, 3-{[(1,3-dihydroxypropan-2-yl)carbamoyl]methyl}-N-methyl-3,4-dihydro-2H-1,4-benzoxazine-6-carboxamide]	2	2.4	1	4	4	1.5	3	0.8	1	524	1	5	54	5478	2	2
CNC(=O)c1ccc2c(c1)N(C)C(CC(=O)NC(CO)CO)CO2 (centres unmarked) [VB, 3-{[(1,3-dihydroxypropan-2-yl)carbamoyl]methyl}-N,4-dimethyl-3,4-dihydro-2H-1,4-benzoxazine-6-carboxamide]	1	0.7	0	0	0	0.9	8	1.2	0	598	9	2	98	9854	1	2
O=C(CC1COc2ccc(C(=O)Nc3ccccc3)cc2N1)NC(CO)CO (centres unmarked) [VC, 3-{[(1,3-dihydroxypropan-2-yl)carbamoyl]methyl}-N-phenyl-3,4-dihydro-2H-1,4-benzoxazine-6-carboxamide]	0	1.2	0	0	0	0.3	7	0.8	0	432	0	4	43	6524	0	0
O=C(CC1COc2ccc(C(=O)NC3CCCCC3)cc2N1)NC(CO)CO (centres unmarked) [VE, N-cyclohexyl-3-{[(1,3-dihydroxypropan-2-yl)carbamoyl]methyl}-3,4-dihydro-2H-1,4-benzoxazine-6-carboxamide]	0	0.5	3	0	0	0.9	7	0.8	3	587	0	0	87	4587	0	1

From patent US11013235B2 (priority 2015, dated 2021)
